In PubChem BioAssay (NCI):
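All cell lines were grown in 96-well plates and treated with compound for 48 hours. TGI marks complete inhibition of growth.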

Legend:
Test in all cases: NCI anticancer screen, dose series, 48 h
HCC-2998 colon = test system: HCC-2998 colon
HCT-15 colon = test system: HCT-15 colon
HL-60(TB) leukemia = test system: HL-60(TB) leukemia
K-562 leukemia = test system: K-562 leukemia
KM12 colon = test system: KM12 colon
MCF7 breast = test system: MCF7 breast
MDA-N = test system: MDA-N
MOLT-4 leukemia = test system: MOLT-4 leukemia
NCI-H460 lung = test system: NCI-H460 lung
OVCAR-5 ovarian = test system: OVCAR-5 ovarian
RXF 393 renal = test system: RXF 393 renal
SF-539 CNS = test system: SF-539 CNS
SK-OV-3 ovarian = test system: SK-OV-3 ovarian
SR leukemia = test system: SR leukemia
T-47D breast = test system: T-47D breast
U251 CNS = test system: U251 CNS
UACC-257 melanoma = test system: UACC-257 melanoma
SF-295 CNS = test system: SF-295 CNS

Row | SMILES | TGI (HCC-2998 colon) [µM] | TGI (HCT-15 colon) [µM] | TGI (HL-60(TB) leukemia) [µM] | TGI (K-562 leukemia) [µM] | TGI (KM12 colon) [µM] | TGI (MCF7 breast) [µM] | TGI (MDA-N) [µM] | TGI (MOLT-4 leukemia) [µM] | TGI (NCI-H460 lung) [µM] | TGI (OVCAR-5 ovarian) [µM] | TGI (RXF 393 renal) [µM] | TGI (SF-539 CNS) [µM] | TGI (SK-OV-3 ovarian) [µM] | TGI (SR leukemia) [µM] | TGI (T-47D breast) [µM] | TGI (U251 CNS) [µM] | TGI (UACC-257 melanoma) [µM] | TGI (SF-295 CNS) [µM]
1 | N=c1oc2c(Br)cc(Br)cc2cc1C(=O)Nc1ccccn1 | > 100 | > 100 | > 100 | > 100 | > 100 | > 100 | > 100 | > 100 | > 100 | > 100 | > 100 | > 100 | > 100 | > 100 | > 100 | > 100 | > 100 | –
2 | CC1=C(C)CC(C#N)(C#N)C(C#N)(C#N)C1 | > 10 | > 10 | > 5 | 9.98 | > 10 | > 10 | > 7.22 | > 6.09 | > 10 | > 10 | > 6.09 | > 10 | > 10 | > 5.17 | 9.9 | > 10 | > 10 | > 10
3 | Cc1c(-c2ccccc2)[nH]c2ccc(Cl)cc2c1=O | > 100 | > 100 | > 100 | > 100 | 28.1 | > 100 | 54.6 | > 100 | > 100 | > 100 | 57.6 | 42.9 | 87.6 | > 100 | > 100 | 57.5 | > 100 | > 100
4 | O=C1OC2C(O)COC2(O)C1(O)C(C[N+](=O)[O-])c1ccc(Cl)cc1 (stereo not given) | 13.4 | 16.7 | 10.5 | 22.4 | 18.3 | 5 | 6.98 | 10.9 | 34.7 | 32.6 | 9.21 | 14 | 31 | 19.6 | 43.2 | 25.5 | 17.4 | 27.9
5 | O=c1c(-c2c(-c3ccccc3)oc3ccc(Cl)cc3c2=O)c(-c2ccccc2)oc2ccc(Cl)cc12 | > 100 | > 100 | 0.606 | > 100 | > 100 | > 100 | > 100 | > 100 | > 100 | > 100 | > 100 | > 100 | > 89.4 | > 100 | > 100 | > 100 | > 100 | > 79.4
6 | CCN(CC)C(=S)SNc1ccc(S(N)(=O)=O)cc1 | > 100 | > 100 | > 100 | > 100 | > 100 | > 100 | > 100 | > 100 | > 100 | > 72.3 | > 82.8 | > 100 | > 100 | > 85.6 | > 100 | > 100 | > 100 | > 100
7 | C=C[C@]1(O)CCC[C@]2(C)C(=O)CCC12C (stereo not given in full) | > 100 | > 100 | > 100 | > 100 | > 100 | > 100 | > 100 | > 100 | > 100 | > 100 | > 100 | > 100 | > 100 | > 100 | > 100 | > 100 | > 100 | > 100
8 | CC1(C)C(C#N)=[N+]([O-])C(C)(C)N1O | > 100 | > 100 | 73.4 | > 100 | > 100 | > 100 | > 100 | > 100 | > 100 | > 100 | > 100 | > 100 | > 100 | > 100 | > 100 | > 100 | > 100 | > 100
9 | COc1ccc(N=Nc2c(C)c(C#N)c(=S)n(C3OC(COC(C)=O)C(OC(C)=O)C(OC(C)=O)C3OC(C)=O)c2C)cc1 (stereo not given) | > 100 | – | > 100 | > 100 | > 100 | > 100 | > 100 | > 100 | > 100 | > 100 | > 100 | > 100 | > 100 | > 100 | > 100 | – | > 100 | > 100
10 | O=C1Oc2ccccc2C(=O)/C1=C/N1C(=O)/C(=C/c2ccc3c(c2)OCO3)SC1=S | 28.9 | 33.2 | > 64.4 | 35.7 | 32 | > 58.4 | 77.7 | 35.9 | 32.4 | 30.2 | 40.2 | 26.7 | 38.5 | 31.4 | 31 | 15 | 51.5 | 35
11 | COc1cccc(C(=O)Nc2c3ccccc3nc3ccccc23)c1OC | > 100 | > 100 | > 100 | > 100 | > 100 | > 100 | > 100 | > 100 | > 100 | > 100 | 72.2 | > 100 | > 100 | > 100 | > 100 | > 100 | > 100 | > 100
12 | C1=Nc2ccc(cc2)N=Cc2ccccc2OCc2cccc(n2)COc2ccccc21 | > 100 | > 100 | > 100 | > 100 | > 100 | > 100 | > 100 | > 100 | > 100 | > 100 | 36.2 | 81.6 | > 100 | > 100 | > 100 | > 100 | > 100 | > 100
13 | CCOC(=O)/C(C=Nc1c(C)n(C)n(-c2ccccc2)c1=O)=C(/O)c1ccccc1 | > 100 | > 100 | > 100 | > 100 | 0.746 | > 100 | > 100 | > 100 | > 100 | > 100 | > 100 | > 100 | > 100 | > 100 | > 100 | > 100 | > 100 | > 100
14 | C/C(=C/c1ccccc1)CN(C(=O)/C=C\Sc1ccccc1)C(C)(C)C | > 100 | > 100 | > 100 | > 100 | > 100 | > 100 | > 100 | > 100 | > 100 | > 100 | > 100 | > 100 | > 100 | > 100 | > 100 | > 100 | > 100 | > 100
15 | CC(C)(Br)C(Br)CCC(=CCBr)CBr (mixture of isomers) | 26.6 | 5.98 | 2.15 | 6.7 | 10.2 | 13.2 | 4.68 | 6.66 | 9.9 | 37.2 | 6.48 | 10.3 | 36.4 | 4.69 | 8.53 | 8.26 | 15.6 | 10.9
16 | O=C(NO)c1ccc(OCc2cccc(Cl)c2)cc1 | 24.4 | 29.9 | 20.8 | > 31.6 | 29.9 | > 100 | 35.4 | > 45.9 | 26 | > 40.8 | 47.6 | > 41.8 | 66.1 | > 28.5 | > 61.5 | > 60.5 | 46.8 | 35.2
17 | O=C(/C=C/c1ccc(O)c(O)c1)OCc1ccccc1 | > 100 | > 100 | 4.66 | 61 | > 100 | 37.9 | > 100 | 39.1 | > 100 | > 100 | 65.4 | 24.5 | 67.4 | 19.7 | 73.8 | 49.6 | 59.1 | 57.4
18 | COc1ccc(C2=Nn3c(nc4sc(C)c(C)c4c3=O)SC2)cc1 | > 100 | > 100 | > 100 | > 100 | > 100 | > 100 | > 100 | > 100 | > 100 | > 100 | > 100 | > 100 | > 100 | > 100 | > 100 | > 100 | > 100 | > 100
19 | COc1ccc2oc(=Nc3ccccc3)c(C(N)=O)cc2c1 | > 100 | > 100 | > 100 | > 100 | > 100 | > 100 | > 100 | > 100 | > 100 | > 100 | > 100 | > 100 | > 70.2 | > 100 | > 100 | > 100 | > 100 | > 100
20 | Cc1nn2c(=O)c([N+](=O)[O-])c(/C=C/c3ccco3)nc2s1 | > 100 | > 100 | 96.2 | > 100 | > 100 | > 100 | 76.5 | > 100 | > 100 | > 100 | > 100 | > 100 | > 100 | 79.2 | > 100 | > 100 | > 100 | > 100
21 | CCCc1cc(=O)oc2c(C=O)c(O)cc(O)c12 | 33.6 | 73.4 | 42.7 | > 100 | 61.2 | 80 | 75.6 | 56.5 | 69.5 | 74.4 | 53 | 57 | 86.9 | 58.1 | 74.9 | 55.7 | 65.2 | 85
